For one data set, the system named is MCF-7. Nature of the data set: MTT cell proliferation assay, MCF-7. It is filed as cell-based. The conditions noted are these: Homo sapiens, MCF7. How it is done: Cells were grown at 37° C. in a 5% CO2 incubator. […] MTT was then added (5 mg/ml), and after 2 h of incubation, the plates were centrifuged. The supernatant was removed; DMSO was added, and the absorbance was read at 540 nm with a BioTek 96-well plate reader.

Data set [1] has as its system MCF-7 cells. Nature of the data set: JC-1 mitochondrial membrane potential staining, MCF-7. It is filed as cell-based, human. As to conditions: HBB 20 μM 4 hours, (±)-14,15-EET 1 μM. How it is done:
Cells were grown in chamber slides at 37° C. with 5% CO2 and treated with DMSO or HBB for 4 hours before JC-1 dye was added for the MCF-7 or MDA-MB-231 cell line. […] Images of red fluorescence (590 nm) and green fluorescence (530 nm) were acquired using an Olympus 1X70 microscope fitted with an Olympus DP70 digital camera (Olympus, Tokyo, Japan).

Data set [2] in a line: MTD for daily dosing by two-fold dose escalation in tumor-bearing mice. Type of data set: in vivo.
Data set [3] deals with MDA-MB-435/LCC6. Nature of the data set: Cell growth inhibition, MDA-MB-435/LCC6. Type of data set: cell-based. As to conditions: MDA-MB-435/LCC6, Triple negative.
Data set [4] can be described thus: Plasma concentration after ip dosing. Type of data set: in vivo, mice. As to conditions: 1 hour after the daily dose, 4 mg/kg/day ip.
For data set [5], the system named is MCF-7 cells. In words: Measurement of OCR and ECAR (extracellular flux), MCF-7. Type of data set: cell-based, human. How it is done:
Cells were maintained in growth medium consisting of 10% FBS at 37° C. with 5% CO2 and seeded at 100,000 cells per well in XF24-well cell culture microplates (Seahorse Bioscience, North Billirica, Mass.). Concentrated stocks of HBB were prepared in DMSO. HBB was diluted to 10× working concentration in XF assay medium (a non-buffered medium including 2 mM L-glutamine but no sodium bicarbonate (buffering agent), glucose, or sodium pyruvate). Assays were performed in the XF Extracellular Flux Analyzer (Seahorse Bioscience that measures uptake and excretion of metabolic end products in real time). Oxygen consumption rate (OCR) and extracellular acidification rate (ECAR) were measured using an XF Assay Kit. OCR is reported in pmoles/minute and ECAR in mpH/minute. Before analysis, the cells were switched from culture medium to XF assay medium. After baseline measurements, 75 μl of HBB prepared in assay medium was injected into each well to reach final working concentrations. After addition of HBB, OCR and ECAR were measured at 18-minute intervals. […] There were 6 replicates for the studies of the 3-18 and 4-14 cell lines.

The next data set concerns T47D. In words: Measurement of OCR and ECAR, T47D. The conditions noted are these: 20 and 40 μM. Type of data set: cell-based, human. How it is done:
(§1) Cells were maintained in growth medium consisting of 10% FBS at 37° C. with 5% CO2 and seeded at 100,000 cells per well in XF24-well cell culture microplates (Seahorse Bioscience, North Billirica, Mass.). Concentrated stocks of HBB were prepared in DMSO. HBB was diluted to 10× working concentration in XF assay medium (a non-buffered medium including 2 mM L-glutamine but no sodium bicarbonate (buffering agent), glucose, or sodium pyruvate). Assays were performed in the XF Extracellular Flux Analyzer (Seahorse Bioscience that measures uptake and excretion of metabolic end products in real time). Oxygen consumption rate (OCR) and extracellular acidification rate (ECAR) were measured using an XF Assay Kit. OCR is reported in pmoles/minute and ECAR in mpH/minute. Before analysis, the cells were switched from culture medium to XF assay medium. After baseline measurements, 75 μl of HBB prepared in assay medium was injected into each well to reach final working concentrations. After addition of HBB, OCR and ECAR were measured at 18-minute intervals. There were 5 replicates was performed for each data point for MCF-7, MDA-MB-231, T47D and MDA-MB-435 cell lines. There were 6 replicates for the studies of the 3-18 and 4-14 cell lines.

The next data set deals with CYP3A4 (Δ3-22) (Homo sapiens, UniProt P08684). In words: Spectral binding to soluble truncated CYP3A4. As to conditions: soluble truncated CYP3A4Δ3-22; read-out: spectral dissociation constant (Ks).
The subject of a further data set is MCF-10A. In words: Cell growth inhibition, MCF-10A non-transformed breast cell line. It is filed as cell-based. As to conditions: Homo sapiens, ER−[PR−].
For data set [6], the system named is MDA-MB-435/LCC6. In words: Measurement of OCR and ECAR, MDA-MB-435/LCC6. The conditions noted are these: 20 and 40 μM. It is filed as cell-based. How it is done: as §1
Where [7] appears, read: t-AUCB 2.5, 5 μM, metformin 2.5, 5 mM, HBB 20, 40 μM, rotenone 1 μM.

Read-outs that look alike come from different tables or passages of the source.

Sequence of CYP3A4 (Δ3-22) (P08684 with tags, fused parts or gaps): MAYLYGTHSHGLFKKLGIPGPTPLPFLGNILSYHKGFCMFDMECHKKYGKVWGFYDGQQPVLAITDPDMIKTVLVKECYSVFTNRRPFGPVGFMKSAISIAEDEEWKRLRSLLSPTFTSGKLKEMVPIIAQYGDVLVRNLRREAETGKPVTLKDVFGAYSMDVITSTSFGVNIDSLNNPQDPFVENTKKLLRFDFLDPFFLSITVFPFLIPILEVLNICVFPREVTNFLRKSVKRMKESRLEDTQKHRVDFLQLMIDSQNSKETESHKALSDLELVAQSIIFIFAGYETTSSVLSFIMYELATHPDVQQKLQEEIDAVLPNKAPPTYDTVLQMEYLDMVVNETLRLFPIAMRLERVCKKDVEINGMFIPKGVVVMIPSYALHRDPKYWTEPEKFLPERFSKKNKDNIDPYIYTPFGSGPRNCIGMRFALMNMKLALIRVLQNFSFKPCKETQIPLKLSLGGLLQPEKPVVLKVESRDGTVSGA

As for `CCCCCCNC(=N)NC(=N)NCc1ccccc1` [HBB, N1-hexyl-N5-benzyl-biguanide], the IC50 is 20.1 µM in the data set with MCF-7 (MCF-7, ER+[PR+]HER2−, read-out: IC50); 20 µM in the data set with MCF-7 (read-out: IC50 MCF-7); 12.5 µM in the data set on MDA-MB-435/LCC6 [3]; 20.5 µM with MCF-10A. The “mitochondrial membrane potential (ΔΨm), JC-1” value in the data set with MCF-7 cells [1] is given as “caused mitochondrial depolarization”. The lethality result in data set [2] (8 mg/kg/day ip, cohorts of 5 tumor-bearing mice) was “animal deaths within 3 days”. In data set [2] (athymic nude (Foxn1nu/Foxn1nu), mouse, in vivo, ip), the MTD is 4 mg/kg/day. In data set [4], this molecule returned a plasma concentration of 0.53 µM. For the same molecule, the “potency as inhibitor of OCR relative to metformin” value in the data set with MCF-7 cells [5] is “more than 250 fold”. The “extracellular acidification rate (ECAR)” value in the data set with MCF-7 cells [5] (setting [7]) is on record as “significant inhibition of ECAR without recovery”. Also, the “oxygen consumption rate (OCR)” value in the data set with MCF-7 cells [5] (setting [7]) is reported as “dose-dependent reduction of OCR”. The “reduction of OCR and ECAR” value with T47D and with MDA-MB-435/LCC6 [6] was “significant vs. vehicle” throughout. Further, the Kd on CYP3A4 (Δ3-22) is 164 µM.

Values taken from patent US20180177749A1, “USE OF CYP EXPRESSION TO DIRECT THERAPEUTIC INTERVENTION IN CANCER” (REGENTS OF THE UNIVERSITY OF MINNESOTA, priority 2016, published 2018).
